Data published in patent US8853258B2, “C-linked hydroxamic acid derivatives useful as antibacterial agents” (Pfizer Inc., priority 2009, dated 2014).
pIC50: −log10 of the molar value.

Key:
[1] = test system: Escherichia coli EC-1: VOGEL, mouse virulent; assay: MIC determination (CLSI), EC-1; type: cell-based
Method in brief: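 E. coli Vogel, a mouse-virulent strain (EC-1), was tested. MICs were set by dilution susceptibility testing per CLSI standards M7-A7/M100-S18.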

[2] = test system: Acinetobacter baumanii/haemolyticus: Multidrug-resistant clinical isolate (AB-3167); assay: MIC determination (CLSI), AB-3167; type: cell-based
Method in brief: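 Multidrug-resistant clinical isolate AB-3167 (A. baumannii/haemolyticus) tested for minimum inhibitory concentration following CLSI dilution susceptibility standards M7-A7 and M100-S18.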

[3] = test system: Pseudomonas aeruginosa UI-18: Wild-type (PA-7); assay: MIC determination (CLSI), PA-7; type: cell-based
Method in brief: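 MIC by dilution method per CLSI M7-A7 and M100-S18 guidelines. Strain: wild-type Pseudomonas aeruginosa UI-18.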

[4] = test system: Klebsiella pneumoniae: Ciprofloxacin-resistant isolate, ESBL, clinical isolate (KP-3700); assay: MIC determination (CLSI), KP-3700; type: cell-based
Method in brief: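 MIC measured by broth dilution according to CLSI M7-A7 and M100-S18 standards. Test organism was a ciprofloxacin-resistant, ESBL-expressing clinical isolate.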

[5] = molecular target: Pseudomonas aeruginosa LpxC enzyme (Pseudomonas aeruginosa (strain ATCC 15692 / DSM 22644 / CIP 104116 / JCM 14847 / LMG 12228 / 1C / PRS 101 / PAO1), UniProt P47205); assay: IC50 Assay, LpxC Enzyme from P. aeruginosa (PA LpxC Enzyme IC50); type: biochemical; conditions: P. aeruginosa LpxC enzyme; read-out: PA LpxC enzyeme IC50
Method in brief: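 Reaction run 1 h then stopped with 1N HCl. Conversion measured by RapidFire high-throughput mass spectrometry. IC50 derived from percent conversion relative to a no-enzyme control.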

[6] = Escherichia coli EC-1 VOGEL, mouse virulent
[7] = Acinetobacter baumanii/haemolyticus multidrug-resistant clinical isolate AB-3167
[8] = Pseudomonas aeruginosa UI-18 wild-type PA-7
[9] = Acinetobacter baumanii/haemolyticus AB-3167
[10] = Pseudomonas aeruginosa UI-18 (PA-7)

SMILES	EC-1 MIC [1, 6]	AB-3167 MIC [2, 7]	PA-7 MIC [3, 8]	KP-3700 MIC [4]	pIC50 [5]	EC-1 MIC ([1]; Escherichia coli EC-1)	AB-3167 MIC [2, 9]	PA-7 MIC [3, 10] [mg/L]
CC(=O)c1ccc(-c2ccc(CCC(C)(C(=O)NO)S(C)(=O)=O)cc2)cc1F (stereo not drawn) [Example 184]	4 mg/L	32 mg/L	0.5 mg/L	2 mg/L	9.81	–	–	–
CC(CCc1ccc(-c2ccc(N3CCNCC3)cc2)cc1)(C(=O)NO)S(C)(=O)=O (stereo not drawn) [Example 185]	16 mg/L	≧64 mg/L	8 mg/L	≧64 mg/L	8.21	–	–	–
C[C@@](CCc1ccc(-c2ccc(C(=O)CO)cc2)cc1)(C(=O)NO)S(C)(=O)=O [Example 186]	2 mg/L	≧64 mg/L	1 mg/L	4 mg/L	9.62	–	–	–
CC(=O)c1ccc(-c2ccc(CCC(C)(C(=O)NO)S(C)(=O)=O)c(F)c2)nc1 (stereo not drawn) [Example 187]	16 mg/L	≧64 mg/L	4 mg/L	16 mg/L	9.20	–	–	–
CC(=O)c1ccc(-c2ccc(CCC(C)(C(=O)NO)S(C)(=O)=O)c(F)c2)cn1 (stereo not drawn) [Example 188]	8 mg/L	≧64 mg/L	2 mg/L	8 mg/L	9.46	–	–	–
CC(=O)c1ccc(-c2ccc(CC[C@](C)(C(=O)NO)S(C)(=O)=O)cc2)nc1 [Example 189]	16 mg/L	≧64 mg/L	4 mg/L	16 mg/L	9.15	–	–	–
CC(=O)c1ccc(-c2ccc(CC[C@](C)(C(=O)NO)S(C)(=O)=O)cc2)cn1 [Example 190]	4 mg/L	≧64 mg/L	2 mg/L	4 mg/L	9.61	–	–	–
C[C@@](CCc1ccc(-c2ccc(CC(=O)N3CCC(O)CC3)cc2)cc1)(C(=O)NO)S(C)(=O)=O [Example 191]	≧64 mg/L	≧64 mg/L	16 mg/L	≧64 mg/L	8.58	–	–	–
C[C@@](CCc1ccc(-c2ccc(C(=O)N3CCC(O)CC3)cc2)cc1)(C(=O)NO)S(C)(=O)=O [Example 192]	≧64 mg/L	≧64 mg/L	16 mg/L	≧64 mg/L	8.47	–	–	–
CC(CCc1ccc(-c2ccc(N3CCN(S(C)(=O)=O)CC3)cc2)cc1)(C(=O)NO)S(C)(=O)=O (stereo not drawn) [Example 193]	16 mg/L	≧64 mg/L	≧64 mg/L	≧64 mg/L	8.97	–	–	–
CC(O)C(=O)c1ccc(-c2ccc(CCC(C)(C(=O)NO)S(C)(=O)=O)cc2)cc1 (stereo not drawn) [Example 194]	1 mg/L	≧64 mg/L	1 mg/L	4 mg/L	9.71	–	–	–
CC(CCc1ccc(-c2ccc3ncccc3c2)c(F)c1)(C(=O)NO)S(C)(=O)=O (stereo not drawn) [Example 195]	1 mg/L	32 mg/L	2 mg/L	4 mg/L	9.13	–	–	–
CC(CCc1ccc(-c2ccc3c(c2)C(=O)NC3)cc1F)(C(=O)NO)S(C)(=O)=O (stereo not drawn) [Example 196]	4 mg/L	≧64 mg/L	4 mg/L	16 mg/L	9.20	–	–	–
CC(CCc1ccc(-c2cccnc2)c(F)c1)(C(=O)NO)S(C)(=O)=O (stereo not drawn) [Example 197]	≧64 mg/L	≧64 mg/L	8 mg/L	≧64 mg/L	8.15	–	–	–
C[C@@](CCc1ccc(-c2cccnc2)cc1)(C(=O)NO)S(C)(=O)=O [Example 198]	≧64 mg/L	≧64 mg/L	8 mg/L	≧64 mg/L	8.42	–	–	–
C[C@@](CCc1ccc(-c2ccc3c(c2)CNC3=O)cc1)(C(=O)NO)S(C)(=O)=O [Example 199]	8 mg/L	≧64 mg/L	2 mg/L	32 mg/L	9.58	–	–	–
CC(CCc1ccc(-c2cnc3ccccc3c2)cc1F)(C(=O)NO)S(C)(=O)=O (stereo not drawn) [Example 200]	1 mg/L	≧64 mg/L	4 mg/L	8 mg/L	9.33	–	–	–
C[C@@](CCc1ccc(-c2cnc3ccccc3c2)cc1)(C(=O)NO)S(C)(=O)=O [Example 201]	–	–	–	8 mg/L	9.62	1 mg/L	≧64 mg/L	2
C[C@@](CCc1ccc(-c2ccc(C#N)cn2)cc1)(C(=O)NO)S(C)(=O)=O [Example 202]	–	–	–	16 mg/L	9.09	8 mg/L	≧64 mg/L	1
CC(CCc1ccc(-c2ccc3c(c2)C(=O)NC3)c(F)c1)(C(=O)NO)S(C)(=O)=O (stereo not drawn) [Example 203]	–	–	–	32 mg/L	9.18	8 mg/L	≧64 mg/L	4
C[C@@](CCc1ccc(-c2ccc(N)nc2)cc1)(C(=O)NO)S(C)(=O)=O [Example 204]	–	–	–	≧64 mg/L	7.74	≧64 mg/L	≧64 mg/L	8
CC(=O)Nc1ccc(-c2ccc(CC[C@](C)(C(=O)NO)S(C)(=O)=O)cc2)cc1 [Example 205]	–	–	–	32 mg/L	8.76	16 mg/L	≧64 mg/L	4
CC(CCc1ccc(-c2ccc(N)nc2)c(F)c1)(C(=O)NO)S(C)(=O)=O (stereo not drawn) [Example 206]	–	–	–	≧64 mg/L	7.63	≧64 mg/L	≧64 mg/L	16
CC(=O)Nc1ccc(-c2ccc(CCC(C)(C(=O)NO)S(C)(=O)=O)cc2F)cc1 (stereo not drawn) [Example 207]	–	–	–	≧64 mg/L	8.15	32 mg/L	≧64 mg/L	16
C[C@@](CCc1ccc(-c2ccc3c(c2)C(=O)NC3)cc1)(C(=O)NO)S(C)(=O)=O [Example 208]	–	–	–	16 mg/L	9.43	4 mg/L	≧64 mg/L	2
CC(CCc1ccc(-c2ccc(NS(C)(=O)=O)cc2)c(F)c1)(C(=O)NO)S(C)(=O)=O (stereo not drawn) [Example 209]	–	–	–	32 mg/L	8.69	8 mg/L	≧64 mg/L	8
C[C@@](CCc1ccc(-c2ccc(NS(C)(=O)=O)cc2)cc1)(C(=O)NO)S(C)(=O)=O [Example 210]	–	–	–	16 mg/L	9.15	4 mg/L	≧64 mg/L	2
